# Tested on: parental untransformed BaF3 cells
# Assay: Tritiated thymidine uptake cell proliferation assay, parental BaF3
# Format: cell-based
# Conditions: Mus musculus, BaF3; 3H-thymidine uptake, 72 h, medium with IL-3
row,Structure (SMILES),IC50
1,"CN1CCN(c2ccc(-c3ccc4[nH]c5nccc(-c6ccc(C(=O)c7ccccc7)cc6)c5c4c3)cc2)CC1 [Example 23, (4-{6-[4-(4-Methylpiperazin-1-yl)-phenyl]-9H-pyrido[2,3-b]indol-4-yl}-phenyl)-phenyl-methanone]",2300 nM
2,"CN1CCN(c2ccc(-c3ccc4[nH]c5nccc(-c6ccc(COc7cccc(C(F)(F)F)c7)cc6)c5c4c3)cc2)CC1 [Example 9, 6-[4-(4-Methylpiperazin-1-yl)-phenyl]-4-[4-(3-trifluoromethyl-phenoxymethyl)-phenyl]-9H-pyrido[2,3-b]indole]",25000 nM
3,"C/C(=C\c1ccccc1)c1ccnc2[nH]c3ccc(-c4ccc(N5CCN(C)CC5)cc4)cc3c12 [Example 28, (E)-6-(4-(4-methylpiperazin-1-yl)phenyl)-4-(1-phenylprop-1-en-2-yl)-9H-pyrido[2,3-b]indole]",800 nM
4,"CN1CCC(N2CCN(c3ccc(-c4ccc5[nH]c6nccc(-c7ccc(Cc8ccccc8)cc7)c6c5c4)cc3)CC2)CC1 [Example 21, 4-(4-Benzylphenyl)-6-(4-(4-(1-methylpiperidin-4-yl)piperazin-1-yl)phenyl)-9H-pyrido[2,3-b]indole]",3700 nM
5,"CN1CCN(c2ccc(-c3ccc4[nH]c5nccc(-c6ccc(Oc7ccccc7)cc6)c5c4c3)cc2)CC1 [Example 48, 6-(4-(4-methylpiperazin-1-yl)phenyl)-4-(4-phenoxyphenyl)-9H-pyrido[2,3-b]indole]",2100 nM
6,"CN1CCN(c2ccc(-c3ccc4[nH]c5nccc(Nc6ccccc6[N+](=O)[O-])c5c4c3)cc2)CC1 [Example 34, {6-[4-(4-Methylpiperazin-1-yl)-phenyl]-9H-pyrido[2,3-b]indol-4-yl}-(2-nitro-phenyl)-amine]",860 nM
7,"COc1cc(Cc2ccccc2)c(O)cc1-c1ccnc2[nH]c3ccc(-c4ccc(N5CCN(C)CC5)cc4)cc3c12 [Example 53, 2-benzyl-4-methoxy-5-(6-(4-(4-methylpiperazin-1-yl)phenyl)-9H-pyrido[2,3-b]indol-4-yl)phenol]",1800 nM
8,"COc1ccc(Cc2ccc(-c3ccnc4[nH]c5ccc(-c6ccc(N7CCN(C)CC7)cc6)cc5c34)cc2)c(OC)c1 [Example 26, 4-[4-(2,4-Dimethoxybenzyl)phenyl]-6-[4-(4-methylpiperazin-1-yl)-phenyl]-9H-pyrido[2,3-b]indole]",630 nM
9,"CN1CCC(N2CCN(c3ccc(-c4ccc5[nH]c6nccc(/C=C/c7ccccc7C(F)(F)F)c6c5c4)cc3)CC2)CC1 [Example 22, (E)-6-(4-(4-(1-Methylpiperidin-4-yl)piperazin-1-yl)phenyl)-4-(2-(2-(trifluoromethyl)phenyl)vinyl)-9H-pyrido[2,3-b]indole]",3900 nM
10,"CN1CCN(c2ccc(-c3ccc4[nH]c5nccc(/C=C/c6ccccc6NS(C)(=O)=O)c5c4c3)cc2)CC1 [Example 29, N-[(E)-2-(2-{6-[4-(4-Methylpiperazin-1-yl)-phenyl]-9H-pyrido[2,3-b]indol-4-yl}-vinyl)-phenyl]-methanesulfonamide]",680 nM
11,"COc1cc(C(O)c2ccccc2)c(OC)cc1-c1ccnc2[nH]c3ccc(-c4ccc(N5CCN(C)CC5)cc4)cc3c12 (centres unmarked) [Example 57, (2,5-dimethoxy-4-(6-(4-(4-methylpiperazin-1-yl)phenyl)-9H-pyrido[2,3-b]indol-4-yl)phenyl)(phenyl)methanol]",790 nM
12,"COc1ccccc1/C=C/c1ccnc2[nH]c3ccc(-c4ccc(N5CCN(C)CC5)cc4)cc3c12 [Example 10, (E)-4-(2-(2-Methoxyphenyl)vinyl)-6-(4-(4-methylpiperazin-1-yl)phenyl)-9H-pyrido[2,3-b]indole]",2100 nM
13,"COc1cc(-c2ccnc3[nH]c4ccc(-c5ccc(N6CCN(C)CC6)cc5)cc4c23)c(OC)cc1Cc1ccccc1 [Example 52, 4-(4-benzyl-2,5-dimethoxyphenyl)-6-(4-(4-methylpiperazin-1-yl)phenyl)-9H-pyrido[2,3-b]indole]",810 nM
14,"CN1CCN(c2ccc(-c3ccc4[nH]c5nccc(N6CCN(Cc7ccccc7)CC6)c5c4c3)cc2)CC1 [Example 59, 4-(4-benzylpiperazin-1-yl)-6-(4-(4-methylpiperazin-1-yl)phenyl)-9H-pyrido[2,3-b]indole]",830 nM
15,"C/C(=C\c1ccccc1C(F)(F)F)c1ccnc2[nH]c3ccc(-c4ccc(N5CCN(C)CC5)cc4)cc3c12 [Example 3, (E)-6-[4-(4-Methylpiperazin-1-yl)-phenyl]-4-[1-(2-(trifluoromethyl)phenyl)prop-1-en-2-yl]-9H-pyrido[2,3-b]indole]",2400 nM
16,"CC/C=C(\c1ccccc1)c1ccnc2[nH]c3ccc(-c4ccc(N5CCN(C)CC5)cc4)cc3c12 [Example 30, (E)-6-[4-(4-Methylpiperazin-1-yl)-phenyl]-4-(1-phenyl-but-1-enyl)-9H-pyrido[2,3-b]indole]",220 nM
17,"CN1CCN(c2ccc(-c3ccc4[nH]c5nccc(Cl)c5c4c3)cc2)CC1 [Example 1, 4-Chloro-6-[4-(4-methylpiperazin-1-yl)-phenyl]-9H-pyrido[2,3-b]indole]",1400 nM
18,"CN1CCN(c2ccc(-c3ccc4[nH]c5nccc(-c6ccc(-c7ccc(F)cc7)nc6)c5c4c3)cc2)CC1 [Example 49, 4-(6-(4-fluorophenyl)pyridin-3-yl)-6-(4-(4-methylpiperazin-1-yl)phenyl)-9H-pyrido[2,3-b]indole]",3200 nM

row,Structure (SMILES),IC50
1,"CN1CCN(c2ccc(-c3ccc4[nH]c5nccc(C#Cc6ccccc6F)c5c4c3)cc2)CC1 [Example 41, 4-((2-Fluorophenyl)ethynyl)-6-[4-(4-methylpiperazin-1-yl)-phenyl]-9H-pyrido[2,3-b]indole]",2500 nM
2,"Cc1cc(OCc2ccc(-c3ccnc4[nH]c5ccc(-c6ccc(N7CCN(C)CC7)cc6)cc5c34)cc2)ccc1Cl [Example 12, 4-[4-(4-Chloro-3-methyl-phenoxymethyl)-phenyl]-6-[4-(4-methylpiperazin-1-yl)-phenyl]-9H-pyrido[2,3-b]indole]",> 50000 nM
3,"CN1CCN(c2ccc(-c3ccc4[nH]c5nccc(C#Cc6ccccc6)c5c4c3)cc2)CC1 [Example 37, 6-[4-(4-Methylpiperazin-1-yl)-phenyl]-4-phenylethynyl-9H-pyrido[2,3-b]indole]",4400 nM
4,"CN1CCN(c2ccc(-c3ccc4[nH]c5nccc(C#Cc6ccc(F)cc6)c5c4c3)cc2)CC1 [Example 40, 4-((4-Fluorophenyl)ethynyl)-6-[4-(4-methylpiperazin-1-yl)-phenyl]-9H-pyrido[2,3-b]indole]",920 nM
5,"CN1CCN(c2ccc(-c3ccc4[nH]c5nccc(-c6ccc(-c7ccccc7)cc6)c5c4c3)cc2)CC1 [Example 5, 4-Biphenyl-4-yl-6-[4-(4-methylpiperazin-1-yl)-phenyl]-9H-pyrido[2,3-b]indole]",> 25000 nM
6,"CN1CCN(c2ccc(-c3ccc4[nH]c5nccc(/C=C/c6ccc(C(F)(F)F)cc6)c5c4c3)cc2)CC1 [Example 14, (E)-6-(4-(4-Methylpiperazin-1-yl)phenyl)-4-(2-(4-(trifluoromethyl)phenyl)vinyl)-9H-pyrido[2,3-b]indole]",> 25000 nM
7,"CC(C)[Si](C=Cc1ccnc2[nH]c3ccc(-c4ccc(N5CCN(C)CC5)cc4)cc3c12)(C(C)C)C(C)C [Example 32, (E) and (Z)-6-(4-(4-methylpiperazin-1-yl)phenyl)-4-(2-(triisopropylsilyl)vinyl)-9H-pyrido[2,3-b]indole]",6900 nM
8,"COc1ccc(/C=C/c2ccnc3[nH]c4ccc(-c5ccc(N6CCN(C)CC6)cc5)cc4c23)cc1 [Example 7, (E)-4-[2-(4-Methoxyphenyl)vinyl]-6-[4-(4-methylpiperazin-1-yl)-phenyl]-9H-pyrido[2,3-b]indole]",4100 nM
9,"CN1CCN(c2ccc(-c3ccc4[nH]c5nccc(-c6ccc(C(O)c7ccccc7)cc6)c5c4c3)cc2)CC1 (centres unmarked) [Example 33, (4-{6-[4-(4-Methylpiperazin-1-yl)-phenyl]-9H-pyrido[2,3-b]indol-4-yl}-phenyl)-phenyl-methanol]",1000 nM
10,"CN1CCN(c2ccc(-c3ccc4[nH]c5nccc(-c6ccc(Cc7ccccc7)cc6C(F)(F)F)c5c4c3)cc2)CC1 [Example 55, 4-(4-benzyl-2-(trifluoromethyl)phenyl)-6-(4-(4-methylpiperazin-1-yl)phenyl)-9H-pyrido[2,3-b]indole]",5100 nM
11,"COc1ccccc1C#Cc1ccnc2[nH]c3ccc(-c4ccc(N5CCN(C)CC5)cc4)cc3c12 [Example 38, 4-(2-Methoxyphenylethynyl)-6-[4-(4-methylpiperazin-1-yl)-phenyl]-9H-pyrido[2,3-b]indole]",1500 nM
12,"COc1ccccc1/C=C(\C)c1ccnc2[nH]c3ccc(-c4ccc(N5CCN(C)CC5)cc4)cc3c12 [Example 27, (E)-4-[1-(2-Methoxyphenyl)-prop-1-en-2-yl]-6-[4-(4-methylpiperazin-1-yl)-phenyl]-9H-pyrido[2,3-b]indole]",2400 nM
13,"COc1cc(C(=O)c2ccccc2)c(O)cc1-c1ccnc2[nH]c3ccc(-c4ccc(N5CCN(C)CC5)cc4)cc3c12 [Example 51, (2-hydroxy-5-methoxy-4-(6-(4-(4-methylpiperazin-1-yl)phenyl)-9H-pyrido[2,3-b]indol-4-yl)phenyl)(phenyl)methanone]",720 nM
14,"CN1CCN(c2ccc(-c3ccc4[nH]c5nccc(N6CCC(Cc7ccccc7)CC6)c5c4c3)cc2)CC1 [Example 58, 4-(4-benzylpiperidin-1-yl)-6-(4-(4-methylpiperazin-1-yl)phenyl)-9H-pyrido[2,3-b]indole]",3300 nM
15,"CN1CCC(N2CCN(c3ccc(-c4ccc5[nH]c6nccc(Nc7ccccc7[N+](=O)[O-])c6c5c4)cc3)CC2)CC1 [Example 36, 6-(4-(4-(1-Methylpiperidin-4-yl)piperazin-1-yl)phenyl)-N-(2-nitrophenyl)-9H-pyrido[2,3-b]indol-4-amine]",7100 nM
16,"CN1CCN(c2ccc(-c3ccc4[nH]c5nccc(-c6ccc(-c7cccc8ccccc78)cc6)c5c4c3)cc2)CC1 [Example 24, 6-[4-(4-Methylpiperazin-1-yl)-phenyl]-4-(4-naphthalen-1-yl-phenyl)-9H-pyrido[2,3-b]indole]",18000 nM
17,"CN1CCN(c2ccc(-c3ccc4[nH]c5nccc(C#Cc6ccccc6Cl)c5c4c3)cc2)CC1 [Example 42, 4-((2-Chlorophenyl)ethynyl)-6-[4-(4-methylpiperazin-1-yl)-phenyl]-9H-pyrido[2,3-b]indole]",2100 nM

# Reference: patent US9428500B2, “Alpha-carbolines for the treatment of cancer” (UNIVERSITA' DEGLI STUDI DI MILANO—BICOCCA, priority 2012, dated 2016)
